IC50 data for 36 compounds are collected here from patent publication US9029359B2, “Heteroaryl Btk inhibitors” (Biogen Idec MA, Inc., priority 2009, dated 2015).

Where only a bound is given, the exact number is not on record here.

This test concerns the target T1, BTK (Homo sapiens, UniProt Q06187).
T1 construct: purchased Upstate 14-552
Kind of test: In vitro BTK kinase assay: BTK-POLYGAT-LS ASSAY. To be noted: ATP 10 uM. Format: biochemical. How it is done:
In vitro BTK kinase assay: BTK-POLYGAT-LS ASSAY. The purpose of the BTK in vitro assay is to determine compound potency against BTK through the measurement of IC50. […] A 24 μL aliquot of a ATP/peptide master mix (final concentration; ATP 10 μM, polyGAT 100 nM) in kinase buffer (10 mM Tris-HCl pH 7.5, 10 mM MgCl2, 200 μM Na3VO4, 5 mM DTT, 0.01% Triton X-100, and 0.2 mg/ml Casein) is added to each well. […] The assay is incubated for 30 minutes before being stopped with 28 μL of a 50 mM EDTA solution. […] The plate is covered and incubated for 45 minutes at room temperature. Time resolved fluorescence (TRF) on Molecular Devices M5 (332 nm excitation; 488 nm emission; 518 nm fluorescein emission) is measured.

T1 sequence (Q06187 whole entry): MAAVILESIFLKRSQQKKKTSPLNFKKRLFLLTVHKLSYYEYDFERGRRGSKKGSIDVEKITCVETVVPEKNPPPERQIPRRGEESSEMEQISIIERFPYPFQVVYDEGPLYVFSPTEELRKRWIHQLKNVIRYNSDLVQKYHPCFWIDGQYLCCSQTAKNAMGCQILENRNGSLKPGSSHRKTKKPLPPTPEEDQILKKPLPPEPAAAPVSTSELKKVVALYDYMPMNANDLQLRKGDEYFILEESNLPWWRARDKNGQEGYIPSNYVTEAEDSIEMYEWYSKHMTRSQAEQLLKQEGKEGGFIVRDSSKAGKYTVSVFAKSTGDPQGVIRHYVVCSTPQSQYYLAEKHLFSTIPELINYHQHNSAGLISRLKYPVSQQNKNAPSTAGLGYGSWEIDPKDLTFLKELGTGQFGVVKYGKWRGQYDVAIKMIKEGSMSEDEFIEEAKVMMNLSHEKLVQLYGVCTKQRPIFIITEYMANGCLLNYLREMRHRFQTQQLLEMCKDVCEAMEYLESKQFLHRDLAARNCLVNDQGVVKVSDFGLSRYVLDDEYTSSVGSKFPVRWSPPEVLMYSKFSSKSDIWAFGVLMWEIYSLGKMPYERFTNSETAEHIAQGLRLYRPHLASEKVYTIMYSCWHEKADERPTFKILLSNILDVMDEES

For orientation: IC50 means the concentration at which inhibition is half-maximal. A higher IC50 goes with a need for much substance. For the compound `O=C(CNc1cc(F)cc(C(F)(F)F)c1)NC1CCCN(c2ncnc3[nH]ccc23)C1` (stereo not drawn) [Example 63, (N-(1-(7H-pyrrolo[2,3-d]pyrimidin-4-yl)piperidin-3-yl)-2-(3-fluoro-5-(trifluoromethyl)phenylamino)acetamide)], the IC50 is under 100 nM.
The same measure for `Cc1c(NCC(=O)NC2CCCN(c3ncnc4[nH]ccc34)C2)cccc1C(F)(F)F` (stereo not drawn) [Example 64, (N-(1-(7H-pyrrolo[2,3-d]pyrimidin-4-yl)piperidin-3-yl)-2-(2-methyl-3-(trifluoromethyl)phenylamino)acetamide)]: 100 to 999 nM; for `Cc1ccc(NCC(=O)NC2CCCN(c3ncnc4[nH]ccc34)C2)cc1C(F)(F)F` (stereo not drawn) [Example 65, (N-(1-(7H-pyrrolo[2,3-d]pyrimidin-4-yl)piperidin-3-yl)-2-(4-methyl-3-(trifluoromethyl)phenylamino)acetamide)]: 100 to 999 nM.
The same measure for `N#Cc1ccccc1NCC(=O)NC1CCCN(c2ncnc3[nH]ccc23)C1` (stereo not drawn) [Example 66, (N-(1-(7H-pyrrolo[2,3-d]pyrimidin-4-yl)piperidin-3-yl)-2-(2-cyanophenylamino)acetamide)]: 1000 to 10000 nM; for `O=C(CNc1ccc(F)cc1F)NC1CCCN(c2ncnc3[nH]ccc23)C1` (stereo not drawn) [Example 67, (N-(1-(7H-pyrrolo[2,3-d]pyrimidin-4-yl)piperidin-3-yl)-2-(2,4-difluorophenylamino)acetamide)]: 100 to 999 nM; for `O=C(CNc1cc(F)cc(F)c1)NC1CCCN(c2ncnc3[nH]ccc23)C1` (stereo not drawn) [Example 68, (N-(1-(7H-pyrrolo[2,3-d]pyrimidin-4-yl)piperidin-3-yl)-2-(3,5-difluorophenylamino)acetamide)]: under 100 nM.
The same measure for `O=C(CNc1cc(C(F)(F)F)ccc1F)NC1CCCN(c2ncnc3[nH]ccc23)C1` (stereo not drawn) [Example 69, (N-(1-(7H-pyrrolo[2,3-d]pyrimidin-4-yl)piperidin-3-yl)-2-(2-fluoro-5-(trifluoromethyl)phenylamino)acetamide)]: 1000 to 10000 nM; for `O=C(CNc1cccc(C(F)(F)F)c1F)NC1CCCN(c2ncnc3[nH]ccc23)C1` (stereo not drawn) [Example 70, (N-(1-(7H-pyrrolo[2,3-d]pyrimidin-4-yl)piperidin-3-yl)-2-(2-fluoro-3-(trifluoromethyl)phenylamino)acetamide)]: 100 to 999 nM; for `O=C(CNc1cccc(F)c1F)NC1CCCN(c2ncnc3[nH]ccc23)C1` (stereo not drawn) [Example 71, (N-(1-(7H-pyrrolo[2,3-d]pyrimidin-4-yl)piperidin-3-yl)-2-(2,3-difluorophenylamino)acetamide)]: 100 to 999 nM.
Compound `O=C(CNC1CCCC1)NC1CCCN(c2ncnc3[nH]ccc23)C1` (stereo not drawn) [Example 72] showed an IC50 of 1000 to 10000 nM.
As for `N#Cc1ccc(NCC(=O)NC2CCCN(c3ncnc4[nH]ccc34)C2)cc1C(F)(F)F` (stereo not drawn) [Example 73, (N-(1-(7H-pyrrolo[2,3-d]pyrimidin-4-yl)piperidin-3-yl)-2-(4-cyano-3-(trifluoromethyl)phenylamino)acetamide)], the IC50 is over 10000 nM.
The same measure for `O=C(CNc1ccc(F)c(C(F)(F)F)c1)NC1CCCN(c2ncnc3[nH]ccc23)C1` (stereo not drawn) [Example 74, (N-(1-(7H-pyrrolo[2,3-d]pyrimidin-4-yl)piperidin-3-yl)-2-(4-fluoro-3-(trifluoromethyl)phenylamino)acetamide)]: 1000 to 10000 nM; for `O=C(CNc1cccc2cn[nH]c12)NC1CCCN(c2ncnc3[nH]ccc23)C1` (stereo not drawn) [Example 75]: 1000 to 10000 nM; for `O=C(CNc1cccc2[nH]ncc12)NC1CCCN(c2ncnc3[nH]ccc23)C1` (stereo not drawn) [Example 76, (2-(1H-indazol-4-ylamino)-N-(1-(7H-pyrrolo[2,3-d]pyrimidin-4-yl)piperidin-3-yl)acetamide)]: 100 to 999 nM.
`O=C(CNc1cccc(-n2cccn2)c1)NC1CCCN(c2ncnc3[nH]ccc23)C1` (stereo not drawn) [Example 77, (2-(3-(1H-pyrazol-1-yl)phenylamino)-N-(1-(7H-pyrrolo[2,3-d]pyrimidin-4-yl)piperidin-3-yl)acetamide)]: the IC50 fell in the range of 100 to 999 nM.
The same measure for `Cn1ncc2c(NCC(=O)NC3CCCN(c4ncnc5[nH]ccc45)C3)cccc21` (stereo not drawn) [Example 78, (N-(1-(7H-pyrrolo[2,3-d]pyrimidin-4-yl)piperidin-3-yl)-2-(1-methyl-1H-indazol-4-ylamino)acetamide)]: 1000 to 10000 nM.
Regarding `O=C(CNc1ccn(-c2ccccc2)n1)NC1CCCN(c2ncnc3[nH]ccc23)C1` (stereo not drawn) [Example 79, (N-(1-(7H-pyrrolo[2,3-d]pyrimidin-4-yl)piperidin-3-yl)-2-(1-phenyl-1H-pyrazol-3-ylamino)acetamide)], the IC50 is over 10000 nM.
The same measure for `Cn1ccc(NCC(=O)NC2CCCN(c3ncnc4[nH]ccc34)C2)n1` (stereo not drawn) [Example 80, (N-(1-(7H-pyrrolo[2,3-d]pyrimidin-4-yl)piperidin-3-yl)-2-(1-methyl-1H-pyrazol-3-ylamino)acetamide)]: 1000 to 10000 nM.
The same measure for `O=C(CNc1cccc2cccnc12)NC1CCCN(c2ncnc3[nH]ccc23)C1` (stereo not drawn) [Example 81, (N-(1-(7H-pyrrolo[2,3-d]pyrimidin-4-yl)piperidin-3-yl)-2-(quinolin-8-ylamino)acetamide)]: 1000 to 10000 nM; for `O=C(CNc1cccc(SC(F)(F)F)c1)NC1CCCN(c2ncnc3[nH]ccc23)C1` (stereo not drawn) [Example 82, (N-(1-(7H-pyrrolo[2,3-d]pyrimidin-4-yl)piperidin-3-yl)-2-(3-(trifluoromethylthio)phenylamino)acetamide)]: 100 to 999 nM.
The result for `O=C(CNc1cccc(N2CCOCC2)c1)NC1CCCN(c2ncnc3[nH]ccc23)C1` (stereo not drawn) [Example 83, (N-(1-(7H-pyrrolo[2,3-d]pyrimidin-4-yl)piperidin-3-yl)-2-(3-morpholinophenylamino)acetamide)] reads 1000 to 10000 nM; that for `Cc1cccc(NCC(=O)NC2CCCN(c3ncnc4[nH]ccc34)C2)c1C` (stereo not drawn) [Example 84, (N-(1-(7H-pyrrolo[2,3-d]pyrimidin-4-yl)piperidin-3-yl)-2-(2,3-dimethylphenylamino)acetamide)], 100 to 999 nM.
`O=C(CNc1ccccc1)N(Cc1ccccc1)C1CCCN(c2ncnc3[nH]ccc23)C1` (stereo not drawn) [Example 86, (N-(1-(7H-pyrrolo[2,3-d]pyrimidin-4-yl)piperidin-3-yl)-N-benzyl-2-(phenylamino)acetamide)]: the IC50 was in the range of 1000 to 10000 nM.
As for `O=C(CNc1ccccc1)N(CCc1ccccc1)C1CCCN(c2ncnc3[nH]ccc23)C1` (stereo not drawn) [Example 87, (N-(1-(7H-pyrrolo[2,3-d]pyrimidin-4-yl)piperidin-3-yl)-N-phenethyl-2-(phenylamino)acetamide)], the 50% inhibitory concentration (IC50) was 100 to 999 nM.
`O=C(CNc1ccccc1)N(CC1CCCCC1)C1CCCN(c2ncnc3[nH]ccc23)C1` (stereo not drawn) [Example 88, (N-(1-(7H-pyrrolo[2,3-d]pyrimidin-4-yl)piperidin-3-yl)-N-(cyclohexylmethyl)-2-(phenylamino)acetamide)] displayed an IC50 of 1000 to 10000 nM.
The same measure for `O=C(CNC(=O)c1ccccc1Cl)NC1CCCN(c2ncnc3[nH]ccc23)C1` (stereo not drawn) [Example 92, (N-(2-(1-(7H-pyrrolo[2,3-d]pyrimidin-4-yl)piperidin-3-ylamino)-2-oxoethyl)-2-chlorobenzamide)]: 1000 to 10000 nM.
The same measure for `O=C(CNC(=O)c1cccc(Cl)c1)NC1CCCN(c2ncnc3[nH]ccc23)C1` (stereo not drawn) [Example 93, (N-(2-(1-(7H-pyrrolo[2,3-d]pyrimidin-4-yl)piperidin-3-ylamino)-2-oxoethyl)-3-chlorobenzamide)]: 1000 to 10000 nM.
Turning to `O=C(CNC(=O)c1ccc(Cl)cc1)NC1CCCN(c2ncnc3[nH]ccc23)C1` (stereo not drawn) [Example 94, (N-(2-(1-(7H-pyrrolo[2,3-d]pyrimidin-4-yl)piperidin-3-ylamino)-2-oxoethyl)-4-chlorobenzamide)], the IC50 lay in the range of 1000 to 10000 nM.
The result for `CC(C)(C)c1ccc(C(=O)NCC(=O)NC2CCCN(c3ncnc4[nH]ccc34)C2)cc1` (stereo not drawn) [Example 95, (N-(2-(1-(7H-pyrrolo[2,3-d]pyrimidin-4-yl)piperidin-3-ylamino)-2-oxoethyl)-4-tert-butylbenzamide)] reads 100 to 999 nM; that for `O=C(Cc1ccccc1)NCC(=O)NC1CCCN(c2ncnc3[nH]ccc23)C1` (stereo not drawn) [Example 96, (N-(1-(7H-pyrrolo[2,3-d]pyrimidin-4-yl)piperidin-3-yl)-2-(2-phenylacetamido)acetamide)], 1000 to 10000 nM.
Compound `O=C(CNC(=O)c1cccc2ccccc12)NC1CCCN(c2ncnc3[nH]ccc23)C1` (stereo not drawn) [Example 97, (N-(2-(1-(7H-pyrrolo[2,3-d]pyrimidin-4-yl)piperidin-3-ylamino)-2-oxoethyl)-1-naphthamide)] gave an IC50 of 100 to 999 nM.
The result for `O=C(CNC(=O)c1ccc2ccccc2c1)NC1CCCN(c2ncnc3[nH]ccc23)C1` (stereo not drawn) [Example 98] reads 100 to 999 nM; that for `O=C(CNC(=O)C1CCCCC1)NC1CCCN(c2ncnc3[nH]ccc23)C1` (stereo not drawn) [Example 99, (N-(2-(1-(7H-pyrrolo[2,3-d]pyrimidin-4-yl)piperidin-3-ylamino)-2-oxoethyl)cyclohexanecarboxamide)], 1000 to 10000 nM.
The same measure for `C[C@@H](Nc1ccccc1)C(=O)N[C@@H]1CCCN(c2ncnc3[nH]ccc23)C1` [Example 100, (R)—N—((R)-1-(7H-pyrrolo[2,3-d]pyrimidin-4-yl)piperidin-3-yl)-2-(phenylamino)propanamide]: 100 to 999 nM; for `C[C@@H](Nc1ccccc1)C(=O)NC1CCCN(c2ncnc3[nH]ccc23)C1` (stereo partly drawn) [Example 101, (2R)—N-(1-(7H-pyrrolo[2,3-d]pyrimidin-4-yl)piperidin-3-yl)-2-(phenylamino)propanamide]: 100 to 999 nM.
`C[C@H](Nc1ccccc1)C(=O)NC1CCCN(c2ncnc3[nH]ccc23)C1` (stereo partly drawn) [Example 102, (2S)—N-(1-(7H-pyrrolo[2,3-d]pyrimidin-4-yl)piperidin-3-yl)-2-(phenylamino)propanamide] came in with an IC50 of over 10000 nM.
